Laboratory results: ChEMBL document CHEMBL1909046, “DrugMatrix in vitro pharmacology data”

Key:
[1] = DRUGMATRIX: Atrial Natriuretic Factor (ANF) radioligand binding (ligand: [125I] ANF (rat)); format: cell membranes, Cavia porcellus, Dunkin-Hartley, Adrenal gland, Membrane; conditions: Not Active = under 50% inhibition at 10 µM
[2] = molecular target: T1, 5-hydroxytryptamine receptor 2C (Homo sapiens, UniProt P28335); assay: DRUGMATRIX: Serotonin (5-Hydroxytryptamine) 5-HT2C radioligand binding (ligand: [3H] Mesulergine); format: cell membranes, CHO-K1, Membrane; conditions: Not Active = under 50% inhibition at 10 µM; for Ki: read-out: Ki
T1 sequence (P28335 whole entry): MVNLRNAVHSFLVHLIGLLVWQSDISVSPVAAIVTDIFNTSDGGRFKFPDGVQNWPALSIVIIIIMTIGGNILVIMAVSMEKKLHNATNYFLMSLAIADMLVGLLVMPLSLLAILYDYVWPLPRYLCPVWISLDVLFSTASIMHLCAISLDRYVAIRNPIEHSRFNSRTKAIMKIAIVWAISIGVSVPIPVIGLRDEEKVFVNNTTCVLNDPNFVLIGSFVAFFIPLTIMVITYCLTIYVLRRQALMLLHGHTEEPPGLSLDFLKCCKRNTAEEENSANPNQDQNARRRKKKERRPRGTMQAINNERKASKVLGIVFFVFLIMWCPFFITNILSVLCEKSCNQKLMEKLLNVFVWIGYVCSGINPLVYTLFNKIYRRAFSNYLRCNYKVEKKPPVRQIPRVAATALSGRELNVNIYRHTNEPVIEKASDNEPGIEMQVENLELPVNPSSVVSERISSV

[3] = DRUGMATRIX: Tumor Necrosis Factor (TNF), Non-Selective radioligand binding (ligand: [125I] TNF-alpha); format: cell membranes, Membrane; conditions: u-937; Not Active = under 50% inhibition at 10 µM
[4] = molecular target: Sodium-dependent dopamine transporter (Homo sapiens, UniProt Q01959); assay: DRUGMATRIX: Dopamine Transporter radioligand binding (ligand: [125I] RTI-55); format: cell membranes, CHO-K1, Membrane; conditions: Not Active = under 50% inhibition at 10 µM; for Ki: read-out: Ki
Sodium-dependent dopamine transporter, sequence (Q01959 whole entry): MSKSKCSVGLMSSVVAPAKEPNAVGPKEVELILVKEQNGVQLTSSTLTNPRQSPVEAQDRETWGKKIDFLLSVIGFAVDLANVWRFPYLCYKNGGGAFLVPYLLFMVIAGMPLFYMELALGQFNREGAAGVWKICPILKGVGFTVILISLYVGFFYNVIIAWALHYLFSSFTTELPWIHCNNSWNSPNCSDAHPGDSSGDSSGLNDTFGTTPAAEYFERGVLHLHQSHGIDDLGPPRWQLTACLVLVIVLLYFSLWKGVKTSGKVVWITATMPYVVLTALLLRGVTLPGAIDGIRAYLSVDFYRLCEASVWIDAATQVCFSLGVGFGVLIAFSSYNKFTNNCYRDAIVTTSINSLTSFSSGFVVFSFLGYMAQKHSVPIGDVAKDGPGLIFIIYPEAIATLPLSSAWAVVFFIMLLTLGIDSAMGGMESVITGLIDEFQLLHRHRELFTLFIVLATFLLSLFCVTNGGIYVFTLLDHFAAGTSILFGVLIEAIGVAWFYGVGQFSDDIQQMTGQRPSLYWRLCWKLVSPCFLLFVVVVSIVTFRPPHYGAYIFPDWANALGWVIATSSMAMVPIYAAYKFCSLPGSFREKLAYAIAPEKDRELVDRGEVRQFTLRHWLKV

[5] = molecular target: T2, Muscarinic acetylcholine receptor M4 (Homo sapiens, UniProt P08173); format: cell membranes, CHO-K1, Membrane; conditions: for Ki: read-out: Ki; for all read-outs here: in other assays of this panel Not Active means under 50% inhibition at 10 µM
T2 sequence (P08173 whole entry): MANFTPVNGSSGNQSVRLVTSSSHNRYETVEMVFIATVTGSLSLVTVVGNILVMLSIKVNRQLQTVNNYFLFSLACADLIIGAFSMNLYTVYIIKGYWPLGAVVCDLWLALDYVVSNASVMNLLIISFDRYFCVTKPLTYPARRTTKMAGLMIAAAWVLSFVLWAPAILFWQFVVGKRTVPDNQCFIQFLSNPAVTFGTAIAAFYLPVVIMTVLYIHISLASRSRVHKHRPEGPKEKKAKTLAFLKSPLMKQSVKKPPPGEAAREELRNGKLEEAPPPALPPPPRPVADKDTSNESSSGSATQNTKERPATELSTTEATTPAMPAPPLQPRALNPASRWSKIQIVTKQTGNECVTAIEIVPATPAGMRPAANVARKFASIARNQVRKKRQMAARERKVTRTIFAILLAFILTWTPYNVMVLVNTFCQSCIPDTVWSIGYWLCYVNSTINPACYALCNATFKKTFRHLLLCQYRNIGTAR

[6] = molecular target: Mitogen-activated protein kinase 14 (Homo sapiens, UniProt Q16539); parameters: species or system Escherichia coli;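 note: inhibition of p38alpha enzyme activity in a biochemical kinase assay, with myelin basic protein serving as substrate; in other assays of this panel Not Active means under 50% inhibition at 10 µM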
Mitogen-activated protein kinase 14, sequence (Q16539 whole entry): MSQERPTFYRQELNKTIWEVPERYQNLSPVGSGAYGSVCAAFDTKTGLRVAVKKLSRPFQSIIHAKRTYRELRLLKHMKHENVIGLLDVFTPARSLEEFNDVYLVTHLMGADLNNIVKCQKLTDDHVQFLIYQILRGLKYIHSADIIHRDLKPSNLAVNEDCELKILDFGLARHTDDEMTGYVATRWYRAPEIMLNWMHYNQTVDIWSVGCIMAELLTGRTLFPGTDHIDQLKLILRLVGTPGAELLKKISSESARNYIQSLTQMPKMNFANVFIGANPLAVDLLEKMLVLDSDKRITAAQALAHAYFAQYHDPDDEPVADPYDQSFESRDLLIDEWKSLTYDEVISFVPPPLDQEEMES

SMILES | IC50 [1] | Ki [1] | IC50 ([2]; read-out: IC50) [nM] | Ki [2] [nM] | IC50 [3] | Ki [3] | IC50 ([4]; read-out: IC50) [nM] | Ki [4] [nM] | IC50 ([5]; cho-k1) | IC50 [6] | IC50 ([2]; cho-k1) | IC50 ([4]; cho-k1) | IC50 ([5]; read-out: IC50) [nM] | Ki [5] [nM] | IC50 ([6]; read-out: IC50) [nM]
Clc1cc(Cl)c(OCC#CI)cc1Cl [HALOPROGIN] | Not Active | Not Active | 2600 | 1360 | Not Active | Not Active | 1970 | 1560 | Not Active | Not Active | – | – | – | – | –
O=C(NCCN1CCOCC1)c1ccc(Cl)cc1 [MOCLOBEMIDE] | Not Active | Not Active | – | – | Not Active | Not Active | – | – | Not Active | Not Active | Not Active | Not Active | – | – | –
Cc1c(N)nc([C@H](CC(N)=O)NC[C@H](N)C(N)=O)nc1C(=O)N[C@H](C(=O)N[C@H](C)[C@@H](O)[C@H](C)C(=O)N[C@H](C(=O)NCCc1nc(-c2nc(C(=O)NCCC[S+](C)C)cs2)cs1)[C@@H](C)O)[C@@H](O[C@@H]1O[C@@H](CO)[C@@H](O)[C@H](O)[C@@H]1O[C@H]1O[C@H](CO)[C@@H](O)[C@H](OC(N)=O)[C@@H]1O)c1c[nH]cn1.[Br-] [BLEOMYCIN A2] | Not Active | Not Active | – | – | Not Active | Not Active | – | – | Not Active | Not Active | Not Active | Not Active | – | – | –
CC(C)Cc1ccc([C@H](C)C(=O)O)cc1 [DEXIBUPROFEN] | Not Active | Not Active | – | – | Not Active | Not Active | – | – | Not Active | Not Active | Not Active | Not Active | – | – | –
COc1ccc(C[C@H](N)C(=O)N[C@H]2[C@@H](O)[C@H](n3cnc4c(N(C)C)ncnc43)O[C@@H]2CO)cc1 [PUROMYCIN] | Not Active | Not Active | – | – | Not Active | Not Active | – | – | Not Active | Not Active | Not Active | Not Active | – | – | –
CCC1(c2ccccc2)C(=O)NC(=O)NC1=O [PHENOBARBITAL] | Not Active | Not Active | – | – | Not Active | Not Active | – | – | Not Active | Not Active | Not Active | Not Active | – | – | –
O=C1c2ccccc2C(=O)C1c1ccccc1 [PHENINDIONE] | Not Active | Not Active | – | – | Not Active | Not Active | – | – | Not Active | Not Active | Not Active | Not Active | – | – | –
OC[C@H]1OC2C3[C@@H](CO)OC(O[C@H]4[C@H](O)[C@@H](O)[C@@H](O[C@H]5[C@H](O)[C@@H](O)[C@@H](O[C@H]6[C@H](O)[C@@H](O)[C@@H](O[C@H]7[C@H](O)[C@@H](O)[C@@H](O[C@H]8[C@H](O)[C@@H](O)[C@@H](O[C@H]9[C@H](O)[C@@H](O)C(OC1[C@H](O)[C@H]2O)O[C@@H]9CO)O[C@@H]8CO)O[C@@H]7CO)O[C@@H]6CO)O[C@@H]5CO)O[C@@H]4CO)[C@H](O)[C@H]3O | Not Active | Not Active | – | – | Not Active | Not Active | – | – | Not Active | Not Active | Not Active | Not Active | – | – | –
CO[C@H]1O[C@@H]2O[C@@]3(C)CC[C@H]4[C@H](C)CC[C@@H]([C@H]1C)[C@@]24OO3 | Not Active | Not Active | – | – | Not Active | Not Active | – | – | Not Active | Not Active | Not Active | Not Active | – | – | –
CC(C)Cn1cnc2c(N)nc3ccccc3c21 [IMIQUIMOD] | Not Active | Not Active | – | – | Not Active | Not Active | – | – | Not Active | Not Active | Not Active | Not Active | – | – | –
COc1cc(NC(C)CCCN)c2ncccc2c1 (stereo not given) [PRIMAQUINE] | Not Active | Not Active | – | – | Not Active | Not Active | – | – | Not Active | Not Active | Not Active | Not Active | – | – | –
O=C(O)COC(=O)Cc1ccccc1Nc1c(Cl)cccc1Cl [ACECLOFENAC] | Not Active | Not Active | – | – | Not Active | Not Active | – | – | Not Active | Not Active | Not Active | Not Active | – | – | –
C#C[C@]1(O)CC[C@H]2[C@@H]3CCC4=CC(=O)CC[C@@H]4[C@H]3CC[C@@]21C [NORETHINDRONE] | Not Active | Not Active | – | – | Not Active | Not Active | – | – | Not Active | Not Active | Not Active | Not Active | – | – | –
CC(C)(C#N)c1cc(Cn2cncn2)cc(C(C)(C)C#N)c1 [ANASTROZOLE] | Not Active | Not Active | – | – | Not Active | Not Active | – | – | Not Active | Not Active | Not Active | Not Active | – | – | –
Cc1cc(C(C)(C)C)c(O)c(C)c1CC1=NCCN1 [OXYMETAZOLINE] | Not Active | Not Active | 578 | 303 | Not Active | Not Active | – | – | – | Not Active | – | Not Active | 3260 | 455 | –
O=C(Nc1ccc(Cl)c(Cl)c1)c1cc(Cl)cc(Cl)c1O [3,3',4',5-TETRACHLOROSALICYLANILIDE] | Not Active | Not Active | – | – | Not Active | Not Active | – | – | Not Active | – | Not Active | Not Active | – | – | 2180
O=C(O)CO [GLYCOLIC ACID] | Not Active | Not Active | – | – | Not Active | Not Active | – | – | Not Active | Not Active | Not Active | Not Active | – | – | –
COC(=O)C[C@](O)(CCC(C)(C)O)C(=O)O[C@@H]1C(OC)=C[C@]23CCCN2CCc2cc4c(cc2[C@H]13)OCO4 [HARRINGTONINE] | Not Active | Not Active | – | – | Not Active | Not Active | – | – | Not Active | Not Active | Not Active | Not Active | – | – | –
CC(C)(c1ccc(O)cc1)c1ccc(O)cc1 [BISPHENOL A] | Not Active | Not Active | – | – | Not Active | Not Active | 19000 | 15100 | Not Active | Not Active | Not Active | – | – | – | –
C=CCO [ALLYL ALCOHOL] | Not Active | Not Active | – | – | Not Active | Not Active | – | – | Not Active | Not Active | Not Active | Not Active | – | – | –
C[C@]12CC[C@@H](O)C[C@@H]1CC[C@@H]1[C@@H]2CC[C@]2(C)C(=O)CC[C@@H]12 [ANDROSTERONE] | Not Active | Not Active | – | – | Not Active | Not Active | – | – | Not Active | Not Active | Not Active | Not Active | – | – | –
COc1ccc(Cl)cc1C(=O)NCCc1ccc(S(=O)(=O)NC(=O)NC2CCCCC2)cc1 [GLYBURIDE] | Not Active | Not Active | – | – | Not Active | Not Active | – | – | Not Active | Not Active | Not Active | Not Active | – | – | –
CC(CN1c2ccccc2Sc2ccccc21)N(C)C (stereo not given) [PROMETHAZINE] | Not Active | Not Active | 12 | 6.48 | Not Active | Not Active | – | – | – | Not Active | – | Not Active | 7.58 | 1.06 | –
C[N+](C)(C)CCOP(=O)([O-])OC[C@H](O)CO | Not Active | Not Active | – | – | Not Active | Not Active | – | – | Not Active | Not Active | Not Active | Not Active | – | – | –
NCC(CC(=O)O)c1ccc(Cl)cc1 (stereo not given) [BACLOFEN] | Not Active | Not Active | – | – | Not Active | Not Active | – | – | Not Active | Not Active | Not Active | Not Active | – | – | –
CC12CCC(CC1=O)C2(C)C (stereo not given) [CAMPHOR] | Not Active | Not Active | – | – | Not Active | Not Active | – | – | Not Active | Not Active | Not Active | Not Active | – | – | –
